The subject of data set [1] is experimental animal models suffering from neuropathy, epilepsy or cerebral ischemia. The following applies: in vivo; cited from earlier work.
The test system of another data set is AMPA/kainate receptor. The following applies: cited from earlier work.
For the next data set, the system named is neuronal culture system. The following applies: substance alone; cited from earlier work.
The target of the next data set is AMPA receptor. As to the kind of experiment: inhibitory activity against the binding of [3H]-AMPA (rat cerebral membrane). To be noted: about 45 nM [3H]-AMPA, 45 minutes on ice water, non-specific: 10 μM quisqualic acid, read-out: Ki value, inhibition of [3H]-AMPA binding. As for the experimental part: Inhibitory activity against the binding with [^3 H]-AMPA, kainic acid neurotoxicity and audiogenic seizure were confirmed as follows:
1) Measurement of inhibitory activity against the binding of [^3 H]-AMPA:
On ice water, 0.5 ml in total of a reaction liquid containing about 45 nM [^3 H]-AMPA [2-amino-3-(3-hydroxy-5-methyl-4-isoxazolyl)propionic acid], about […] of a sample of a rat cerebral membrane and a test compound was reacted for 45 minutes. The amount of [^3 H]-AMPA bound to the AMPA receptor was measured by the filtration method. A portion substituted by 10 μM quisqualic acid in the total bound amount was taken as the specific binding amount. Evaluation of the test compound was carried out by determining the binding inhibition ratio against the specific binding.

The test system of data set [2] is hippocampal neuron (kainic acid neurotoxicity). In words: inhibitory activity against kainic acid neurotoxicity in primary culture of hippocampal neurons (LDH release). The format is cell-based. To be noted: 300 μM kainic acid, 24 hours, fetal rat hippocampal neuron, read-out: IC50, inhibition of neuronal death caused by kainic acid. As for the experimental part: 2) Measurement of inhibitory activity against kainic acid neurotoxicity:
Inhibitory action of the invention compound against kainic acid neurotoxicity was investigated using the primary culture system of the hippocampal neuron of a fetal rat.
(1) Incubation conditions
The hippocamp was cut out from a brain of the 18 to 20-day-old fetal rat and was subjected to enzyme treatment with papain and DNase I to disperse the cells. The cells so obtained were floated on MEM containing 10% serum and then were inoculated on a 48-well plate treated in advance with poly-I-lysine in a concentration of 4×10^5 cell/cm^2. Twenty four hours later, the serum was replaced by a serum-free medium. The medium replacement was carried out twice a week. The cells which were cultivated for at least 6 days were provided for the following test.
(2) Inhibition against kainic acid neurotoxicity
Neurotoxicity was expressed by an activity of lactate dehydrogenase released in the culture medium by the cell death. As a control, neurons which were exposed to a serum-free medium containing 300 μM kainic acid for 24 hours were used. Each compound, together with 300 μM kainic acid, was allowed to act on the neuron for 24 hours and inhibitory action of each compound against neuronal death caused by kainic acid was evaluated.

Data set [3] has as its system DBA/2 mouse (audiogenic seizure). As to the kind of experiment: audiogenic seizure inhibitory action in DBA/2 mouse. Format: in vivo. The following applies: ip, 0.25 h, intraperitoneal, 15 minutes before stimulation by sound of 12 kHz and 120 dB, male 21 to 28-day-old mice, read-out: minimum effective dose (MED), suppression of audiogenic seizure. As for the experimental part: 3) Measurement of audiogenic seizure inhibitory action in DBA/2 mouse
Ten male 21 to 28-day-old mice were exposed to auditory and stimulation by the sound of 12 kHz and 120 dB in a sound proof box for one minute or until these mice cause tonic seizure. The test compound was suspended in a 0.5% methylcellulose solution or dissolved in physiological saline and the resulting suspension or solution was intraperitoneally administered 15 minutes before the stimulation by the sound. The drug efficacy was evaluated by presence or absence of the appearance of seizure and the minimum effective dose (MED) was determined.

Data set [4] in a line: solubility in phosphate buffers of pH 5, 6, 7 and 8. The following applies: aqueous buffer. Format: physicochemical. The method, then:
4) Measurement of solubility
To a 0.1M aqueous solution of potassium dihydrogenphosphate, a 0.1M aqueous solution of […] was added, whereby buffers having pH of 5, 6, 7 and 8 were prepared, respectively.
Measurement of Solubility:
About 5 mg portions of the invention compound were weighed precisely in four glass test tubes and 0.1 ml phosphate buffers having pH 5, 6, 7 and 8 were added, respectively, followed by thorough shaking. The value obtained in accordance with the following equation was taken as the solubility. [formula]

Data set [5] relates to experimental animal models suffering from cerebral ischemia. To be noted: in vivo; cited from earlier work.
Setting [6] is: phosphate buffer pH 6, read-out: solubility, pH 6.

The structures appear in SMILES notation. Converted amounts (≈) assume the structure as drawn. Like-named read-outs stand apart in the source and are kept apart here.

Take `NC(CCCP(=O)(O)O)C(=O)O` (stereo not shown) [2-amino-5-phosphonovalerianic acid]: the “effect in experimental animal models of neuropathy, epilepsy or cerebral ischemia (in words)” value in data set [1] is reported as “effective”.

Consider `NC(CCCCCP(=O)(O)O)C(=O)O` (stereo not shown) [2-amino-7-phosphonoheptanic acid], for which the “effect in experimental animal models of neuropathy, epilepsy or cerebral ischemia (in words)” value in data set [1] was “effective”.

`Cc1onc(O)c1CC(N)C(=O)O` (stereo not shown) [AMPA, 2-amino-3-(3-hydroxy-5-methyl-4-isoxazolyl)propionic acid]: the “affinity with the AMPA/kainate receptor (in words)” value in the data set on AMPA/kainate receptor is given as “high affinity”. Moreover, the “neuronal cell death in neuronal culture (in words)” value in the data set on neuronal culture system is given as “weak”.

Take `O=C(O)Cn1c(=O)c(=O)[nH]c2cc([N+](=O)[O-])c(-n3ccnc3)cc21` [Example 1, 2-[2,3-dioxo-7-(1H-imidazol-1-yl)-6-nitro-1,2,3,4-tetrahydroquinoxalin-1-yl]acetic acid]: at AMPA receptor, the Ki was 0.73 µM. Further, the IC50 in data set [2] was determined as 0.8 µM. For the same compound, in data set [3], the minimal effective dose turned out to be 3 mg/kg. The solubility came to 2490 µg/mL (≈ 7.51 mM) in data set [4] (phosphate buffer pH 5, read-out: solubility, pH 5); 2620 µg/mL (≈ 7.91 mM) in data set [4] (setting [6]); 3640 µg/mL (≈ 11 mM) in data set [4] (phosphate buffer pH 7, read-out: solubility, pH 7); 5130 µg/mL (≈ 15.5 mM) in data set [4] (phosphate buffer pH 8, read-out: solubility, pH 8).

With `O=C(O)Cn1c(=O)c(=O)[nH]c2cc(C(F)(F)F)c(-n3ccnc3)cc21` [Example 9, 2-[2,3-dioxo-7-(1H-imidazole-1-yl)-6-trifluoromethyl-1,2,3,4-tetrahydroquinoxalin-1-yl]acetic acid], at AMPA receptor, the Ki amounted to 0.093 µM. Moreover, the IC50 in data set [2] came to 0.96 µM. Also, the minimal effective dose in data set [3] was 10 mg/kg. The solubility in data set [4] (setting [6]) came out at 4100 µg/mL (≈ 11.6 mM).

Consider `O=C(O)Cn1c(=O)c(=O)[nH]c2cc(OCc3ccccc3)c(-n3ccnc3)cc21` [Example 19, 2-[6-benzyloxy-2,3-dioxo-7-(1H-imidazol-1-yl)-1,2,3,4-tetrahydroquinoxalin-1-yl]acetic acid], for which the inhibitory constant (Ki) on AMPA receptor was determined as 0.07 µM. For the same compound, in data set [2], the half-maximal inhibitory concentration (IC50) is 0.48 µM. In data set [3], the minimal effective dose is 1 mg/kg.

In the case of `NC1CCN(O)C1=O` (stereo not shown) [HA-966], in data set [5], the “effect in experimental animal models of cerebral ischemia (in words)” value was “effective”.

Take `NS(=O)(=O)c1cccc2c1c([N+](=O)[O-])cc1[nH]c(=O)c(=O)[nH]c12` [NBQX]: in data set [5], the “effect in experimental animal models of cerebral ischemia (in words)” value was “effective”.

On to `C=C(C)[C@H]1CN[C@H](C(=O)O)[C@H]1CC(=O)O` [kainic acid], for which the “affinity with the AMPA/kainate receptor (in words)” value in the data set with AMPA/kainate receptor is “low affinity”. In addition, the “neuronal cell death in neuronal culture (in words)” value in the data set with neuronal culture system is on record as “causes marked neuronal cell death”.

By Ki is commonly meant a measure of affinity in units of concentration, obtained from inhibition or displacement. Usually IC50 stands for the concentration that inhibits the measured activity by half. For orientation: solubility means how much of the substance goes into solution per volume.

Values taken from patent US6096743A, “1,2,3,4-tetrahydroquinoxalinedione derivative” (Yamanouchi Pharmaceuticals Co., Ltd., priority 1994, dated 2000).
